± gives the expanded uncertainty stated by the source.
Experiment: xn = mol fraction of the nth substance listed
Details: 101 kPa, Liquid; for viscosity: Capillary tube (Ostwald / Ubbelohde) method; for mass density: Vibrating tube method

CCCCCCCC [octane] + CCCO
viscosity (293.15 K, x1 = 0.0997): 1.692 ± 0.021 mPa·s
viscosity (293.15 K, x1 = 0.1999): 1.356 ± 0.016 mPa·s
viscosity (293.15 K, x1 = 0.3): 1.092 ± 0.013 mPa·s
viscosity (293.15 K, x1 = 0.3997): 0.934 ± 0.011 mPa·s
viscosity (293.15 K, x1 = 0.4993): 0.798 ± 0.01 mPa·s
viscosity (293.15 K, x1 = 0.602): 0.703 ± 0.01 mPa·s
viscosity (293.15 K, x1 = 0.6991): 0.632 ± 0.009 mPa·s
viscosity (293.15 K, x1 = 0.7994): 0.587 ± 0.009 mPa·s
viscosity (293.15 K, x1 = 0.9): 0.556 ± 0.009 mPa·s
viscosity (293.15 K, x1 = 1): 0.545 ± 0.009 mPa·s
mass density (293.15 K, x1 = 0.0997): 782.97 ± 0.76 kg/m3
mass density (293.15 K, x1 = 0.1999): 766.37 ± 0.62 kg/m3
mass density (293.15 K, x1 = 0.3): 752.87 ± 0.51 kg/m3
mass density (293.15 K, x1 = 0.3997): 741.8 ± 0.43 kg/m3
mass density (293.15 K, x1 = 0.4993): 732.43 ± 0.38 kg/m3
mass density (293.15 K, x1 = 0.602): 724.19 ± 0.33 kg/m3
mass density (293.15 K, x1 = 0.6991): 717.48 ± 0.3 kg/m3
mass density (293.15 K, x1 = 0.7994): 711.55 ± 0.26 kg/m3
mass density (293.15 K, x1 = 0.9): 706.48 ± 0.23 kg/m3
mass density (293.15 K, x1 = 1): 702.54 ± 0.15 kg/m3
viscosity (298.15 K, x1 = 0.0997): 1.508 ± 0.019 mPa·s
viscosity (298.15 K, x1 = 0.1999): 1.216 ± 0.015 mPa·s
viscosity (298.15 K, x1 = 0.3): 0.991 ± 0.012 mPa·s
viscosity (298.15 K, x1 = 0.3997): 0.854 ± 0.011 mPa·s
viscosity (298.15 K, x1 = 0.4993): 0.734 ± 0.01 mPa·s
viscosity (298.15 K, x1 = 0.602): 0.65 ± 0.009 mPa·s
viscosity (298.15 K, x1 = 0.6991): 0.589 ± 0.009 mPa·s
viscosity (298.15 K, x1 = 0.7994): 0.55 ± 0.009 mPa·s
viscosity (298.15 K, x1 = 0.9): 0.523 ± 0.009 mPa·s
viscosity (298.15 K, x1 = 1): 0.513 ± 0.009 mPa·s
mass density (298.15 K, x1 = 0.0997): 778.9 ± 0.76 kg/m3
mass density (298.15 K, x1 = 0.1999): 762.25 ± 0.62 kg/m3
mass density (298.15 K, x1 = 0.3): 748.72 ± 0.51 kg/m3
mass density (298.15 K, x1 = 0.3997): 737.62 ± 0.43 kg/m3
mass density (298.15 K, x1 = 0.4993): 728.24 ± 0.38 kg/m3
mass density (298.15 K, x1 = 0.602): 719.99 ± 0.33 kg/m3
mass density (298.15 K, x1 = 0.6991): 713.3 ± 0.3 kg/m3
mass density (298.15 K, x1 = 0.7994): 707.39 ± 0.26 kg/m3
mass density (298.15 K, x1 = 0.9): 702.35 ± 0.23 kg/m3
mass density (298.15 K, x1 = 1): 698.49 ± 0.15 kg/m3
viscosity (303.15 K, x1 = 0.0997): 1.352 ± 0.017 mPa·s
viscosity (303.15 K, x1 = 0.1999): 1.097 ± 0.014 mPa·s
viscosity (303.15 K, x1 = 0.3): 0.899 ± 0.012 mPa·s
viscosity (303.15 K, x1 = 0.3997): 0.777 ± 0.01 mPa·s
viscosity (303.15 K, x1 = 0.4993): 0.675 ± 0.01 mPa·s
viscosity (303.15 K, x1 = 0.602): 0.603 ± 0.009 mPa·s
viscosity (303.15 K, x1 = 0.6991): 0.55 ± 0.009 mPa·s
viscosity (303.15 K, x1 = 0.7994): 0.515 ± 0.009 mPa·s
viscosity (303.15 K, x1 = 0.9): 0.491 ± 0.009 mPa·s
viscosity (303.15 K, x1 = 1): 0.485 ± 0.009 mPa·s
mass density (303.15 K, x1 = 0.0997): 774.8 ± 0.77 kg/m3
mass density (303.15 K, x1 = 0.1999): 758.1 ± 0.62 kg/m3
mass density (303.15 K, x1 = 0.3): 744.53 ± 0.51 kg/m3
mass density (303.15 K, x1 = 0.3997): 733.4 ± 0.44 kg/m3
mass density (303.15 K, x1 = 0.4993): 724.01 ± 0.38 kg/m3
mass density (303.15 K, x1 = 0.602): 715.77 ± 0.33 kg/m3
mass density (303.15 K, x1 = 0.6991): 709.09 ± 0.3 kg/m3
mass density (303.15 K, x1 = 0.7994): 703.2 ± 0.26 kg/m3
mass density (303.15 K, x1 = 0.9): 698.19 ± 0.23 kg/m3
mass density (303.15 K, x1 = 1): 694.44 ± 0.16 kg/m3
viscosity (308.15 K, x1 = 0.0997): 1.211 ± 0.015 mPa·s
viscosity (308.15 K, x1 = 0.1999): 0.992 ± 0.013 mPa·s
viscosity (308.15 K, x1 = 0.3): 0.817 ± 0.011 mPa·s
viscosity (308.15 K, x1 = 0.3997): 0.712 ± 0.01 mPa·s
viscosity (308.15 K, x1 = 0.4993): 0.623 ± 0.009 mPa·s
viscosity (308.15 K, x1 = 0.602): 0.56 ± 0.009 mPa·s
viscosity (308.15 K, x1 = 0.6991): 0.514 ± 0.009 mPa·s
viscosity (308.15 K, x1 = 0.7994): 0.484 ± 0.009 mPa·s
viscosity (308.15 K, x1 = 0.9): 0.463 ± 0.009 mPa·s
viscosity (308.15 K, x1 = 1): 0.459 ± 0.009 mPa·s
mass density (308.15 K, x1 = 0.0997): 770.67 ± 0.77 kg/m3
mass density (308.15 K, x1 = 0.1999): 753.91 ± 0.62 kg/m3
mass density (308.15 K, x1 = 0.3): 740.3 ± 0.52 kg/m3
mass density (308.15 K, x1 = 0.3997): 729.15 ± 0.44 kg/m3
mass density (308.15 K, x1 = 0.4993): 719.75 ± 0.38 kg/m3
mass density (308.15 K, x1 = 0.602): 711.51 ± 0.33 kg/m3
mass density (308.15 K, x1 = 0.6991): 704.85 ± 0.3 kg/m3
mass density (308.15 K, x1 = 0.7994): 698.98 ± 0.26 kg/m3
mass density (308.15 K, x1 = 0.9): 694.02 ± 0.23 kg/m3
mass density (308.15 K, x1 = 1): 690.37 ± 0.16 kg/m3
viscosity (313.15 K, x1 = 0.0997): 1.09 ± 0.014 mPa·s
viscosity (313.15 K, x1 = 0.1999): 0.898 ± 0.012 mPa·s
viscosity (313.15 K, x1 = 0.3): 0.745 ± 0.01 mPa·s
viscosity (313.15 K, x1 = 0.3997): 0.653 ± 0.01 mPa·s
viscosity (313.15 K, x1 = 0.4993): 0.576 ± 0.009 mPa·s
viscosity (313.15 K, x1 = 0.602): 0.52 ± 0.009 mPa·s
viscosity (313.15 K, x1 = 0.6991): 0.481 ± 0.009 mPa·s
viscosity (313.15 K, x1 = 0.7994): 0.455 ± 0.009 mPa·s
viscosity (313.15 K, x1 = 0.9): 0.436 ± 0.009 mPa·s
viscosity (313.15 K, x1 = 1): 0.433 ± 0.009 mPa·s
mass density (313.15 K, x1 = 0.0997): 766.5 ± 0.77 kg/m3
mass density (313.15 K, x1 = 0.1999): 749.69 ± 0.62 kg/m3
mass density (313.15 K, x1 = 0.3): 736.04 ± 0.52 kg/m3
mass density (313.15 K, x1 = 0.3997): 724.85 ± 0.44 kg/m3
mass density (313.15 K, x1 = 0.4993): 715.44 ± 0.38 kg/m3
mass density (313.15 K, x1 = 0.602): 707.21 ± 0.33 kg/m3
mass density (313.15 K, x1 = 0.6991): 700.57 ± 0.3 kg/m3
mass density (313.15 K, x1 = 0.7994): 694.73 ± 0.26 kg/m3
mass density (313.15 K, x1 = 0.9): 689.81 ± 0.23 kg/m3
mass density (313.15 K, x1 = 1): 686.29 ± 0.16 kg/m3
viscosity (318.15 K, x1 = 0.0997): 0.984 ± 0.013 mPa·s
viscosity (318.15 K, x1 = 0.1999): 0.817 ± 0.011 mPa·s
viscosity (318.15 K, x1 = 0.3): 0.68 ± 0.01 mPa·s
viscosity (318.15 K, x1 = 0.3997): 0.605 ± 0.009 mPa·s
viscosity (318.15 K, x1 = 0.4993): 0.534 ± 0.009 mPa·s
viscosity (318.15 K, x1 = 0.602): 0.485 ± 0.009 mPa·s
viscosity (318.15 K, x1 = 0.6991): 0.451 ± 0.009 mPa·s
viscosity (318.15 K, x1 = 0.7994): 0.427 ± 0.009 mPa·s
viscosity (318.15 K, x1 = 0.9): 0.412 ± 0.008 mPa·s
viscosity (318.15 K, x1 = 1): 0.412 ± 0.008 mPa·s
mass density (318.15 K, x1 = 0.0997): 762.28 ± 0.77 kg/m3
mass density (318.15 K, x1 = 0.1999): 745.41 ± 0.63 kg/m3
mass density (318.15 K, x1 = 0.3): 731.72 ± 0.52 kg/m3
mass density (318.15 K, x1 = 0.3997): 720.51 ± 0.44 kg/m3
mass density (318.15 K, x1 = 0.4993): 711.09 ± 0.38 kg/m3
mass density (318.15 K, x1 = 0.602): 702.87 ± 0.33 kg/m3
mass density (318.15 K, x1 = 0.6991): 696.25 ± 0.3 kg/m3
mass density (318.15 K, x1 = 0.7994): 690.45 ± 0.26 kg/m3
mass density (318.15 K, x1 = 0.9): 685.58 ± 0.23 kg/m3
mass density (318.15 K, x1 = 1): 682.19 ± 0.16 kg/m3
viscosity (323.15 K, x1 = 0.0997): 0.89 ± 0.012 mPa·s
viscosity (323.15 K, x1 = 0.1999): 0.742 ± 0.011 mPa·s
viscosity (323.15 K, x1 = 0.3): 0.623 ± 0.01 mPa·s
viscosity (323.15 K, x1 = 0.3997): 0.554 ± 0.009 mPa·s
viscosity (323.15 K, x1 = 0.4993): 0.496 ± 0.009 mPa·s
viscosity (323.15 K, x1 = 0.602): 0.452 ± 0.009 mPa·s
viscosity (323.15 K, x1 = 0.6991): 0.423 ± 0.009 mPa·s
viscosity (323.15 K, x1 = 0.7994): 0.403 ± 0.008 mPa·s
viscosity (323.15 K, x1 = 0.9): 0.389 ± 0.008 mPa·s
viscosity (323.15 K, x1 = 1): 0.392 ± 0.008 mPa·s
mass density (323.15 K, x1 = 0.0997): 758.02 ± 0.78 kg/m3
mass density (323.15 K, x1 = 0.1999): 741.08 ± 0.63 kg/m3
mass density (323.15 K, x1 = 0.3): 727.35 ± 0.52 kg/m3
mass density (323.15 K, x1 = 0.3997): 716.12 ± 0.44 kg/m3
mass density (323.15 K, x1 = 0.4993): 706.7 ± 0.38 kg/m3
mass density (323.15 K, x1 = 0.602): 698.49 ± 0.33 kg/m3
mass density (323.15 K, x1 = 0.6991): 691.9 ± 0.3 kg/m3
mass density (323.15 K, x1 = 0.7994): 686.13 ± 0.26 kg/m3
mass density (323.15 K, x1 = 0.9): 681.32 ± 0.23 kg/m3
mass density (323.15 K, x1 = 1): 678.08 ± 0.16 kg/m3

Reference: the NIST ThermoML archive (doi:10.1021/je4004806)
